Some test systems named below: HL-60(TB) leukemia; IGROV1 ovarian; MOLT-4 leukemia; NCI/ADR-RES ovarian; OVCAR-8 ovarian; PC-3 prostate; T-47D breast; U251 CNS; UACC-62 melanoma; UO-31 renal.
Holding throughout (assay): NCI tumour cell line growth inhibition, 48 h

The text below walks through data of PubChem BioAssay (NCI).

Several values for one entry are separate records, joined by “and”; a condition that tells them apart may be missing. Equal values may be shown once.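 Interpolation was linear, between the two tested concentrations surrounding the appropriate level; five concentrations were tested over 48 hours in 96-well plates. Here, GI50 denotes the concentration required for 50% inhibition of growth. TGI is the concentration that stops growth completely.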

Take `O=c1cc(-c2ccccc2)oc2cc(OC/C(=N/O)c3ccc(F)cc3)ccc12`: the GI50 with HL-60(TB) leukemia was 19 µM; with IGROV1 ovarian it was 19.6 µM; with MOLT-4 leukemia, greater than 50 µM; in the assay with NCI/ADR-RES ovarian, 21 µM; with OVCAR-8 ovarian, 32.2 µM; in the assay on PC-3 prostate, 11.9 µM. Further, the GI50 in the assay on T-47D breast is 25.5 µM; in the assay on U251 CNS, 22 µM; in the assay on UACC-62 melanoma, 14.8 µM; in the assay on UO-31 renal, 14.7 µM. Besides, the TGI in the assay on HL-60(TB) leukemia was greater than 50 µM; in the assay with IGROV1 ovarian it was greater than 50 µM; in the assay with MOLT-4 leukemia, greater than 50 µM; in the assay with NCI/ADR-RES ovarian, greater than 50 µM; with OVCAR-8 ovarian, greater than 50 µM; in the assay with PC-3 prostate, 40.1 µM. Further, the TGI with T-47D breast, with U251 CNS, in the assay with UACC-62 melanoma and with UO-31 renal was greater than 50 µM throughout.

Turning to `Cc1cn(-c2ccc(S(C)(=O)=O)cc2)c(-c2ccc(Cl)cc2)n1`, the GI50 with HL-60(TB) leukemia, in the assay with IGROV1 ovarian, in the assay on MOLT-4 leukemia, in the assay with NCI/ADR-RES ovarian, in the assay on OVCAR-8 ovarian and in the assay on PC-3 prostate was greater than 100 µM each time. Moreover, the GI50 with T-47D breast, in the assay on U251 CNS, in the assay with UACC-62 melanoma and in the assay with UO-31 renal was greater than 100 µM throughout. Also, the TGI with HL-60(TB) leukemia, with IGROV1 ovarian, with MOLT-4 leukemia, in the assay with NCI/ADR-RES ovarian, in the assay on OVCAR-8 ovarian and in the assay with PC-3 prostate was greater than 100 µM throughout. In addition, the TGI in the assay with T-47D breast, in the assay on U251 CNS, in the assay on UACC-62 melanoma and with UO-31 renal was greater than 100 µM throughout.

In the case of `CN1CCN(CCOc2cc(OC3CCOCC3)c3c(Nc4c(Cl)ccc5c4OCO5)ncnc3c2)CC1`, the GI50 is 18.7 µM and > 10 µM with HL-60(TB) leukemia; 0.244 µM and 0.204 µM with IGROV1 ovarian; 14.6 µM and > 10 µM in the assay on MOLT-4 leukemia; 10.6 µM and 8.91 µM with NCI/ADR-RES ovarian; 8.55 µM and 8.64 µM in the assay on OVCAR-8 ovarian; 19.3 µM and > 10 µM in the assay on PC-3 prostate. For the same compound, the GI50 in the assay with T-47D breast is 1.23 µM and 0.286 µM; in the assay with U251 CNS, 11.2 µM and > 10 µM; in the assay with UACC-62 melanoma, 14.8 µM; in the assay with UO-31 renal, 0.42 µM and 0.373 µM. Further, the TGI in the assay with HL-60(TB) leukemia is 37.8 µM and > 10 µM; in the assay on IGROV1 ovarian, 2.72 µM and 3.05 µM; in the assay with MOLT-4 leukemia it was 49.2 µM and > 10 µM; in the assay on NCI/ADR-RES ovarian, 56.8 µM and > 10 µM; with OVCAR-8 ovarian, 34 µM and > 10 µM; with PC-3 prostate it was greater than 100 µM. Further, the TGI with T-47D breast was 22.3 µM and > 10 µM; in the assay on U251 CNS it was 31.1 µM and > 10 µM; in the assay on UACC-62 melanoma, 28.6 µM; in the assay with UO-31 renal, 14.5 µM and > 10 µM.

Turning to `Oc1[nH]c2ccccc2c1N=Nc1c(F)c(F)c(F)c(F)c1F`, the TGI was 9.15 µM with HL-60(TB) leukemia; greater than 100 µM with IGROV1 ovarian; 31.8 µM in the assay on MOLT-4 leukemia; greater than 100 µM with NCI/ADR-RES ovarian; greater than 100 µM in the assay on OVCAR-8 ovarian; greater than 100 µM in the assay on PC-3 prostate. Also, the TGI in the assay on T-47D breast was greater than 74.7 µM; in the assay with U251 CNS it was greater than 100 µM; in the assay on UACC-62 melanoma, greater than 100 µM; in the assay with UO-31 renal, greater than 91.8 µM.

`NNC(=O)c1ccc(OCc2nc3ccccc3[nH]2)cc1`: the TGI in the assay with HL-60(TB) leukemia, with IGROV1 ovarian, in the assay with MOLT-4 leukemia, in the assay on NCI/ADR-RES ovarian, in the assay on OVCAR-8 ovarian and in the assay with PC-3 prostate was greater than 100 µM throughout. For the same compound, the TGI in the assay with T-47D breast, in the assay on U251 CNS, with UACC-62 melanoma and in the assay on UO-31 renal was greater than 100 µM in each case.

As for `Cc1cnc(Nc2ccc(N3CCN(C)CC3)cc2)nc1Nc1ccc(Cl)c(NS(=O)(=O)C(C)(C)C)c1`, the GI50 is 0.103 µM in the assay with HL-60(TB) leukemia; 0.154 µM in the assay on IGROV1 ovarian; 0.419 µM in the assay on MOLT-4 leukemia; 0.511 µM with NCI/ADR-RES ovarian; 0.652 µM in the assay on OVCAR-8 ovarian; 0.408 µM in the assay with PC-3 prostate. Moreover, the GI50 is 0.349 µM in the assay with T-47D breast, 0.84 µM in the assay with U251 CNS, 0.0808 µM with UACC-62 melanoma and 0.0877 µM in the assay with UO-31 renal. In addition, the TGI with HL-60(TB) leukemia came out at 1.02 µM; in the assay with IGROV1 ovarian it was 2.66 µM; in the assay with MOLT-4 leukemia it was 11.6 µM; in the assay with NCI/ADR-RES ovarian it was 6.09 µM; in the assay on OVCAR-8 ovarian, 8.1 µM; in the assay with PC-3 prostate it was 16.9 µM. The TGI in the assay on T-47D breast came out at 15.5 µM; in the assay on U251 CNS, 11.7 µM; in the assay with UACC-62 melanoma, 1.68 µM; in the assay with UO-31 renal it was 1.29 µM.

Take `CN(C)c1ccc(C(c2ccc(Cl)cc2)c2ccc(N(C)C)cc2)cc1`: the TGI in the assay with HL-60(TB) leukemia, in the assay with IGROV1 ovarian, in the assay with MOLT-4 leukemia, with NCI/ADR-RES ovarian, in the assay with OVCAR-8 ovarian and in the assay on PC-3 prostate was greater than 100 µM in each case. The TGI in the assay with T-47D breast, in the assay on U251 CNS, in the assay on UACC-62 melanoma and in the assay with UO-31 renal was greater than 100 µM in each case.

On to `COc1cccc(C2C3=C(COC3=O)N(CCO)c3cc4c(cc32)OCO4)c1` (centres undefined), for which the GI50 with HL-60(TB) leukemia is 0.132 µM; with IGROV1 ovarian, 0.154 µM; in the assay with MOLT-4 leukemia, 0.315 µM; with NCI/ADR-RES ovarian it was 0.341 µM; with OVCAR-8 ovarian, 1.19 µM; in the assay on PC-3 prostate, 0.265 µM. The GI50 with T-47D breast was 0.263 µM; with U251 CNS, 0.269 µM; in the assay on UO-31 renal, 0.297 µM. Further, the TGI was 0.352 µM in the assay with HL-60(TB) leukemia; 1.64 µM in the assay with IGROV1 ovarian; greater than 16.7 µM with MOLT-4 leukemia; 2.72 µM in the assay on NCI/ADR-RES ovarian; greater than 50 µM with OVCAR-8 ovarian; greater than 50 µM in the assay with PC-3 prostate. Besides, the TGI in the assay on T-47D breast, with U251 CNS, in the assay on UACC-62 melanoma and in the assay on UO-31 renal was greater than 50 µM each time.

On to `CCOC(=O)c1ccc2c(c1)[n+](=O)c(C(C)=O)c(C(F)(F)F)n2[O-]`, for which the GI50 in the assay with HL-60(TB) leukemia is 1.44 µM; with IGROV1 ovarian, 1.46 µM; in the assay with MOLT-4 leukemia it was 1.31 µM; with NCI/ADR-RES ovarian, 1.89 µM; with OVCAR-8 ovarian, 2.42 µM; with PC-3 prostate, 0.885 µM. Also, the GI50 is 1.29 µM in the assay on T-47D breast, 1.48 µM in the assay with U251 CNS, 1.49 µM with UACC-62 melanoma and 1.49 µM in the assay on UO-31 renal. In addition, the TGI in the assay with HL-60(TB) leukemia turned out to be 3.08 µM; in the assay on IGROV1 ovarian it was 3.42 µM; in the assay with MOLT-4 leukemia, 3.97 µM; in the assay on NCI/ADR-RES ovarian, 5.98 µM; with OVCAR-8 ovarian, 9.25 µM; in the assay on PC-3 prostate it was 2.38 µM. For the same compound, the TGI was determined as 3.06 µM in the assay with T-47D breast, 3.02 µM with U251 CNS, 3.46 µM with UACC-62 melanoma and 3.15 µM with UO-31 renal.

For the compound `COc1cccc(/C(C)=N/NC(=O)CSc2nc3ccccc3c(=O)n2CCc2ccc(S(N)(=O)=O)cc2)c1`, the GI50 in the assay with HL-60(TB) leukemia was greater than 100 µM; with IGROV1 ovarian, 5.09 µM; in the assay with MOLT-4 leukemia it was 6.5 µM; in the assay with NCI/ADR-RES ovarian, 21.3 µM; with OVCAR-8 ovarian, 2.32 µM; with PC-3 prostate it was 3.51 µM. Also, the GI50 in the assay on T-47D breast is 6.44 µM; with U251 CNS, 1.98 µM; with UACC-62 melanoma, 8.32 µM; in the assay with UO-31 renal it was 2.11 µM. Besides, the TGI in the assay with HL-60(TB) leukemia is greater than 100 µM; in the assay with IGROV1 ovarian, 24.4 µM; with MOLT-4 leukemia, 40.2 µM; with NCI/ADR-RES ovarian it was greater than 100 µM; in the assay on OVCAR-8 ovarian, 4.88 µM; in the assay with PC-3 prostate it was 22.2 µM. The TGI amounted to 29.3 µM in the assay on T-47D breast, 3.67 µM in the assay on U251 CNS, 33.5 µM in the assay on UACC-62 melanoma and 6.48 µM with UO-31 renal.

With `Nc1nc(=O)n([C@@H]2CS[C@H](CO)O2)cc1F`, the GI50 in the assay with HL-60(TB) leukemia, in the assay with IGROV1 ovarian, in the assay with MOLT-4 leukemia, in the assay with NCI/ADR-RES ovarian, with OVCAR-8 ovarian and in the assay on PC-3 prostate was greater than 100 µM throughout. Besides, the GI50 with T-47D breast, in the assay with U251 CNS, in the assay with UACC-62 melanoma and in the assay on UO-31 renal was greater than 100 µM throughout. Also, the TGI in the assay with HL-60(TB) leukemia, in the assay with IGROV1 ovarian, in the assay with MOLT-4 leukemia, with NCI/ADR-RES ovarian, with OVCAR-8 ovarian and in the assay on PC-3 prostate was greater than 100 µM each time. Moreover, the TGI in the assay on T-47D breast, in the assay on U251 CNS, with UACC-62 melanoma and in the assay on UO-31 renal was greater than 100 µM throughout.
